What is called logP is a log measure of how a compound divides between an organic and an aqueous phase. Read a high logP as a more lipophilic compound. For orientation: logD means lipophilicity at a set pH, counting ionised and neutral species. Read a high logD as a more lipophilic compound.

The values that follow come from the SangsterLogP compilation.

Structures are written as SMILES.

Assay in the first data set: not given
Conditions: not given
Consider `[cH:1]1[c:2]([Cl:3])[c:4]2[cH:5][cH:6][cH:7][c:8]([Cl:9])[c:10]2[cH:11][cH:12]1`, for which the log partition coefficient (logP) came to 4.67.

In the case of `Clc1cccc2ccccc12`, the lipophilicity (logP) was 3.9. Still for that read-out and setting: to `Clc1ccc2cccc(Cl)c2c1` belongs 4.56.

Assay in another data set: not given
Conditions: not given
The source holds these as a separate data set.
On to `CC1=CC(=O)c2cc(C)ccc2C1=O`, for which the logP was found to be 1.77. Still for that read-out and setting: to `CC(C)NCC(O)COc1cccc2[nH]ccc12` (stereo not drawn) belongs 1.76; to `c1ccc(N=Nc2ccccc2)cc1`, 3.92.

Assay in the next data set: not given
Conditions: not given
This is another data set of the same source.
For `O=C(O)CCC12C=CC(CCC(=O)O)(OO1)c1ccccc12`, the log partition coefficient (logP) is -0.13.

For the compound `CC12OOC(CCC(=O)O)(C=C1CCC(=O)O)c1ccccc12` (stereo not drawn), the logP was 0.24.

Regarding `CC12C=CC(C)(OO1)c1ccccc12`, the logP worked out at 2.17.

Assay in the next data set: not given
Conditions: not given
This is another data set of the same source.
In turn, `O=C1NC(Cc2c[nH]c3ccccc23)C(=O)NC1Cc1ccc(O)cc1` (stereo not drawn) gave a logP of 1.21.

Regarding `O=C1CNC(=O)C(Cc2ccccc2)N1` (stereo not drawn), the logP turned out to be 0.25.

`O=C1NC(Cc2ccccc2)C(=O)NC1Cc1ccccc1` (stereo not drawn) had a logP of 2.08.

Assay in a further data set: not given
Conditions: not given
The source holds these as a separate data set.
On to `Clc1cc2c(cc1Cl)=c1cc(Cl)c(Cl)cc1=2`, for which the logP was 6.14. As to `Clc1cc2c(cc1Cl)Oc1c(Cl)c(Cl)c(Cl)c(Cl)c1O2`, the lipophilicity (logP) came out at 7.79. `Clc1cc(Cl)c2[nH]c3c(Cl)cc(Cl)cc3c2c1` gave a logP of 5.75.

Assay in a further data set: not given
Conditions: not given
This is another data set of the same source.
For the compound `O=c1[nH]c2ccccc2n1C1=CCNCC1`, the logP is 0.85.

For the compound `O=c1[nH]c2cc(Cl)ccc2n1C1CCNCC1`, the logP worked out at 1.59. On to `O=c1[nH]c2ccccc2n1C1CCNCC1`, for which the logP was 1.14.

Assay in the next data set: not given
Conditions: not given
This is another data set of the same source.
Turning to `Cc1c(N=C2NCCN2)ccc2nccnc12`, the logP turned out to be 0.9. In turn, `Cc1c(N=C2NCCN2)ccc2c1NCCN2` gave a logP of 0.04. For the compound `Cc1c(N=C2NCCN2)ccc2c1NCCO2`, the logP was found to be 0.35.

A short description of another data set: method code SF-HPLC, from PMID: 1515051. The conditions noted are these: pH 6.0.
`c1ccc2[nH]c(-c3cscn3)nc2c1` returned a logD of 2.47. Compound `CCCOC(=O)n1c(-c2cscn2)nc2ccccc21` displayed a logD of 2.98. For `COC(=O)n1c(-c2cscn2)nc2ccccc21`, the logD worked out at 2.05.

Assay in a further data set: not given
Conditions: not given
This is another data set of the same source.
In turn, `Clc1cccc(-c2c(Cl)ccc(Cl)c2Cl)c1Cl` gave a logP of 6.04.

In turn, `Clc1ccc(Cl)c(-c2cccc(Cl)c2Cl)c1` had a logP of 5.81. Same read-out and setting: the figure for `Clc1cc(Cl)cc(-c2cc(Cl)c(Cl)cc2Cl)c1` is 5.68.

Assay in a further data set: not given
Conditions: not given
This is another data set of the same source.
`C=C(C)C(=O)OCC(O)COc1ccc(C(C)(C)c2ccc(OCC(O)COC(=O)C(=C)C)cc2)cc1` (stereo not drawn) showed a logP of 3.34. `C=C(C)C(=O)OCCC(C)OC(=O)C(=C)C` (stereo not drawn) yielded a logP of 2.16. `C=C(C)C(=O)OCc1ccccc1` yielded a log partition coefficient (logP) of 2.16.

Assay in the next data set: not given
Conditions: not given
This is another data set of the same source.
`c1ccc2c(c1)-c1ccc3ccc4cccc5cc-2c1c3c45` yielded a log partition coefficient (logP) of 6.58. The compound `c1ccc2c(c1)ccc1cc3ccc4ccccc4c3cc12` yielded a logP of 6.84. Compound `C1=Cc2cccc3cccc1c23` yielded a log partition coefficient (logP) of 4.07.

Another data set can be described thus: method code SF-GLC, from DOI: 10.1021/je970069v.
Conditions: not given
Compound `Cc1c(Cl)cc(C(C)C)c(Cl)c1Cl` came in with a logP of 6.2. As to `Cc1c(Cl)c(Cl)c(C(C)C)c(Cl)c1Cl`, the logP is 6.8. Compound `Cc1cc(Cl)c(C(C)C)cc1Cl` came in with a logP of 5.6.

A short description of the next data set: method code SF-GLC, from DOI: 10.1007/bf00224496.
Conditions: not given
Compound `C=C1C2CCC(C2)C1(C)C` (stereo not drawn) returned a logP of 4.56.

Compound `CC1(C)C2CC3C(C2)C31C` came in with a logP of 4.85. The compound `C=C1CCC2(C(C)C)CC12` (stereo not drawn) yielded a logP of 4.63.

The nature of the next data set: method code G-GLC, from DOI: 10.1021/es00169a004.
Conditions: not given
Regarding `Clc1cc(Cl)c(-c2c(Cl)c(Cl)cc(Cl)c2Cl)c(Cl)c1Cl`, the logP came to 7.21. The same measure, in the same setting: to `Clc1cc(Cl)c(Cl)c(-c2ccccc2)c1Cl` belongs 5.94; to `Clc1cc(Cl)c(-c2c(Cl)cccc2Cl)c(Cl)c1`, 5.37.

The nature of a further data set: method code SF-AS, from DOI: 10.1002/ddr.430140205. Particulars: pH 7.4.
The compound `CC(C)Cn1c(=O)n(C)c(=O)c2nc[nH]c21` displayed a logD of 1.22. With `Nc1cc(-c2ccncc2)c[nH]c1=O`, the logD is 0.54. Compound `CCc1[nH]c(=O)[nH]c1C(=O)c1ccncc1` had a logD of 0.08.

A further data set can be described thus: method code SF-CR+DM, from DOI: 10.1021/ja01573a017. The conditions noted are these: pH 6.5.
Take `O=[N+]([O-])c1ccc2c(O)cccc2c1`: the logD is 3.5. In turn, `Oc1c(Cl)cc(Cl)c2ccccc12` came in with a pH-dependent lipophilicity (logD) of 4.76. The compound `Cc1ccc(CCCC(N)=O)c(O)c1` returned a logD of 2.26.

The next data set can be described thus: method code SF-HPLC, from DOI: 10.1080/01483919108049396. Particulars: pH 7.0.
As to `Nc1ncnc2c1ncn2C1CCC(CO)O1` (stereo not drawn), the logD was -0.29. Compound `O=C(Nc1ccn([C@H]2C[C@H](O)[C@@H](CO)O2)c(=O)n1)c1ccccc1` showed a logD of 0.67.

Compound `O=c1[nH]cnc2c1ncn2[C@H]1C[C@H](O)[C@@H](CO)O1` had a logD of -1.71.

A short description of a further data set: method code SF-AS, from DOI: 10.1016/s0021-9673(00)82600-x.
Conditions: not given
As for `CNc1cnn(-c2ccccc2)c(=O)c1Cl`, the log partition coefficient (logP) was found to be 1.19. `Nc1cnn(-c2cccc(C(F)(F)F)c2)c(=O)c1Cl` displayed a logP of 2.41.

On to `CN(C)c1cnn(-c2cccc(C(F)(F)F)c2)c(=O)c1Cl`, for which the logP came to 2.67.

A short description of another data set: method code SF-AS, from DOI: 10.1007/bf00165040, PMID: 3033523. Particulars: pH 7.4.
The compound `Nc1ncnc2c1nc(Sc1ccc(Cl)cc1)n2[C@@H]1O[C@@H]2COP(=O)(O)O[C@H]2[C@H]1O` showed a logD of -0.98. In turn, `CC(C)C(C)Sc1nc2c(N)ncnc2n1C1OC2COP(=O)(O)OC2C1O` (stereo not drawn) registered a logD of -1.05. With `CSc1nc2c(N)ncnc2n1C1OC2COP(=O)(O)OC2C1O` (stereo not drawn), the logD was -2.03.

Another data set can be described thus: method code SF-AS, from DOI: 10.1021/jm00047a013, PMID: 7932583.
Conditions: not given
`CO[C@H]1N([C@H]2C[C@H](F)[C@@H](CO)O2)C(=O)NC(=O)[C@]1(C)Cl` registered a lipophilicity (logP) of 0.71. Take `CO[C@@H]1N([C@H]2C[C@H](F)[C@@H](CO)O2)C(=O)NC(=O)[C@@]1(C)I`: the logP worked out at 0.6. On the same count and under the same terms, the figure for `CO[C@@H]1N([C@H]2C[C@H](F)[C@@H](CO)O2)C(=O)NC(=O)[C@@]1(C)Br` is 0.54.

The nature of the next data set: method code SF-AS, from DOI: 10.1021/jm00075a005, PMID: 8246220. The conditions noted are these: pH 7.4.
With `COc1ccc(CON2C(=O)CC3(CCCC3)C2=O)cc1`, the pH-dependent lipophilicity (logD) worked out at 2.23. As for `O=C1CC2(CCCC2)C(=O)N1Oc1ccccc1`, the logD is 1.77. Consider `CCON1C(=O)CC2(CCCC2)C1=O`, for which the log distribution coefficient (logD) was 1.26.

Another data set can be described thus: method code SF-CR, from DOI: 10.1248/cpb.21.2417, PMID: 4779830. The conditions noted are these: pH 6.0.
On to `CN1C=CSC1NS(=O)(=O)c1ccc(N)cc1` (stereo not drawn), for which the logD is -0.07. `CN1C=CC=CC1NS(=O)(=O)c1ccc(N)cc1` (stereo not drawn): the logD was -0.58. `CN(c1nccs1)S(=O)(=O)c1ccc(N)cc1` gave a log distribution coefficient (logD) of 1.63.

Another data set can be described thus: method code SF-NMR, from DOI: 10.1021/jm00157a023, PMID: 3806574.
Conditions: not given
As for `CCOCCOCCOP(=S)(N1CC1(C)C)N1CC1(C)C` (stereo not drawn), the logP was determined as 0.47.

`CCOCCOCCOP(=S)(N1CC1)N1CC1` had a logP of 0.38. With `S=P(N1CCOCCOCCOCCOCCOCC1)(N1CC1)N1CC1`, the logP is 0.75.

The next data set can be described thus: method code SF-HPLC, from DOI: 10.1021/jm00112a026, PMID: 1875345. Particulars: pH 7.4.
As for `OC(CN1C2CCCCCCC21)Cn1ccnc1` (stereo not drawn), the logD worked out at 1.84.

`OC(CN1C2CCc3ccccc3C21)Cn1ccnc1` (stereo not drawn) displayed a logD of 2.15. `OC(CN1C2CCCC21)Cn1ccnc1` (stereo not drawn) gave a logD of 0.37.

The next data set can be described thus: method code SF-AS, from DOI: 10.1002/jps.2600790421, PMID: 2352153.
Conditions: not given
As to `CC(C)[C@@H](C(=O)N[C@@H](Cc1ccccc1)C(=O)NC(=O)NCCCl)N(CCCl)N=O`, the logP is 3.47. `O=NN(CCCl)C(CC(=O)NCCCl)C(=O)NC(=O)NCCCl` (stereo not drawn) gave a logP of 3.15.

Compound `O=NN(CCCl)C(Cc1ccccc1)C(=O)NC(=O)NCCCl` (stereo not drawn) returned a logP of 3.25.

A short description of a further data set: method code SF-AS, from KuchaÅ™, M.; Rejholec, V.; Miller, V. (1985). Chromatographically determined lipophilicity and intramolecular interactions of bioactive compounds. Pharmacochemistry Library, 8, 321-331. Particulars: pH 3.4.
On to `COc1ccc(C(=O)CCCC(=O)O)cc1`, for which the logD amounted to 1.63.

`CCc1ccc(C(C)(O)C(=O)O)cc1` (stereo not drawn) returned a logD of 1.9. As for `CCC(O)(C(=O)O)c1ccccc1` (stereo not drawn), the pH-dependent lipophilicity (logD) came out at 1.37.
